Data as given in the supplement of paper PMC10307832.

Compound: CN(C)C(=N)NC(=N)N [Metformin] + COc1cc2c(Oc3ccc(NC(=O)C4(C(=O)Nc5ccc(F)cc5)CC4)cc3F)ccnc2cc1OCCCN1CCOCC1 [Foretinib] (partner 0.25 µM)
Experiment: relative viability (nuclei count vs DMSO), 5 days (fraction); higher = more cells survive
Details: first compound 10 µM
Method in brief: (§1)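 A single step with final 0.05% Triton X-100, 1% formaldehyde and 1 ug/ml Hoechst fixed the cells and stained nuclei 5 days after treatment. Lung cancer cell lines in 1536-well plates had been treated by pin tool the day after seeding with one drug alone or a fixed anchor-drug dose plus five library-drug doses (not always all listed) in √10 steps, and nuclei were counted on 4× images. Relative viability is the ratio of nuclei in treated wells to nuclei in vehicle wells, taken as the median of duplicate plates.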

In order of falling relative viability:
1. LK-2  1.72
2. NCI-H1437  1.3
3. NCI-H650  1.18
4. NCI-H1975  1.16
5. NCI-H322M  1.14
6. NCI-H647  1.08
7. NCI-H838  1.04
8. LOU-NH91  1.03
9. NCI-H1666  1.03
10. NCI-H1651  1.01
11. NCI-H727  0.971
12. NCI-H1395  0.965
13. NCI-H1993  0.964
14. NCI-H1355  0.941
15. NCI-H23  0.925
16. LCLC-97TM1  0.912
17. NCI-H1944  0.881
18. LXF-289  0.873
19. NCI-H1734  0.844
20. NCI-H596  0.832
21. LCLC-103H  0.823
22. NCI-H1793  0.78
23. NCI-H1755  0.757
24. NCI-H358  0.726
25. LU99A  0.57

Same assay, conditions: first compound 31.62 µM

In order of rising relative viability:
1. LU99A  0.676
2. NCI-H358  0.723
3. NCI-H1651  0.765
4. NCI-H727  0.769
5. NCI-H1755  0.789
6. LCLC-97TM1  0.808
7. NCI-H596  0.855
8. NCI-H441  0.879
9. NCI-H1734  0.896
10. LXF-289  0.918
11. NCI-H1944  0.995
12. NCI-H1395  1
13. LOU-NH91  1.02
14. NCI-H1993  1.02
15. NCI-H322M  1.03
16. NCI-H1666  1.03
17. NCI-H1915  1.04
18. NCI-H1355  1.05
19. NCI-H647  1.07
20. LCLC-103H  1.09
21. NCI-H23  1.1
22. NCI-H1975  1.1
23. NCI-H838  1.13
24. NCI-H650  1.31
25. NCI-H1437  1.31
26. LK-2  1.93

Same assay, conditions: first compound 100 µM

In order of rising relative viability:
1. LU99A  0.643
2. NCI-H358  0.658
3. NCI-H1755  0.778
4. NCI-H441  0.799
5. NCI-H596  0.85
6. LCLC-97TM1  0.875
7. LXF-289  0.879
8. LCLC-103H  0.881
9. NCI-H1993  0.912
10. NCI-H1734  0.95
11. NCI-H727  0.959
12. NCI-H1355  0.998
13. NCI-H23  1.01
14. NCI-H1793  1.01
15. LOU-NH91  1.03
16. NCI-H1651  1.03
17. NCI-H1944  1.03
18. NCI-H1395  1.04
19. NCI-H322M  1.05
20. NCI-H838  1.07
21. NCI-H1666  1.08
22. NCI-H1975  1.08
23. NCI-H1915  1.15
24. NCI-H650  1.23
25. NCI-H647  1.26
26. NCI-H1437  1.32
27. LK-2  1.79

Same assay, conditions: first compound 316.23 µM

In order of rising relative viability:
1. LU99A  0.596
2. NCI-H358  0.732
3. NCI-H1755  0.742
4. NCI-H1793  0.743
5. LCLC-103H  0.781
6. NCI-H441  0.788
7. NCI-H1734  0.798
8. NCI-H1651  0.802
9. NCI-H1993  0.836
10. NCI-H596  0.861
11. NCI-H1395  0.883
12. LCLC-97TM1  0.895
13. NCI-H727  0.914
14. LXF-289  0.916
15. NCI-H1944  0.924
16. NCI-H647  0.932
17. NCI-H23  0.953
18. LOU-NH91  0.972
19. NCI-H1355  0.972
20. NCI-H838  0.984
21. NCI-H1666  1.03
22. NCI-H1975  1.06
23. NCI-H1915  1.07
24. NCI-H322M  1.1
25. NCI-H650  1.24
26. LK-2  1.28
27. NCI-H1437  1.29

Same assay, conditions: first compound 1000 µM

In order of rising relative viability:
1. LU99A  0.677
2. NCI-H441  0.77
3. NCI-H358  0.813
4. NCI-H1755  0.816
5. NCI-H596  0.89
6. LXF-289  0.912
7. LCLC-103H  0.923
8. NCI-H727  0.927
9. NCI-H322M  0.935
10. NCI-H1734  0.935
11. NCI-H1355  0.99
12. NCI-H838  0.996
13. NCI-H1944  0.996
14. NCI-H1395  0.997
15. LCLC-97TM1  1.02
16. NCI-H1651  1.02
17. LOU-NH91  1.06
18. NCI-H1993  1.06
19. NCI-H23  1.08
20. NCI-H1666  1.09
21. NCI-H647  1.1
22. NCI-H650  1.18
23. NCI-H1793  1.18
24. NCI-H1915  1.18
25. NCI-H1437  1.21
26. NCI-H1975  1.21

Compound: CN(C)C(=N)NC(=N)N [Metformin] + Cc1cc(Nc2cc(N3CCN(C)CC3)nc(Sc3ccc(NC(=O)C4CC4)cc3)n2)n[nH]1 [Tozasertib] (partner 0.1 µM)
Experiment: as above
Details: first compound 10 µM
Method in brief: as §1

In order of rising relative viability:
1. NCI-H358  0.0917
2. LK-2  0.163
3. LCLC-97TM1  0.18
4. LXF-289  0.191
5. LU99A  0.234
6. NCI-H647  0.244
7. NCI-H1734  0.246
8. NCI-H838  0.28
9. NCI-H1944  0.314
10. NCI-H23  0.382
11. NCI-H1437  0.403
12. NCI-H1755  0.446
13. NCI-H1793  0.459
14. NCI-H322M  0.48
15. LCLC-103H  0.557
16. NCI-H727  0.564
17. LOU-NH91  0.595
18. NCI-H1355  0.613
19. NCI-H1993  0.622
20. NCI-H1666  0.625
21. NCI-H1395  0.727
22. NCI-H1651  0.751
23. NCI-H650  0.831
24. NCI-H1975  0.888
25. NCI-H596  0.955

Same assay, conditions: first compound 31.62 µM

In order of falling relative viability:
1. NCI-H596  0.93
2. NCI-H1975  0.905
3. NCI-H1651  0.847
4. NCI-H727  0.821
5. NCI-H650  0.8
6. NCI-H1395  0.752
7. NCI-H1355  0.654
8. NCI-H1666  0.649
9. LOU-NH91  0.633
10. LCLC-103H  0.627
11. NCI-H1993  0.551
12. NCI-H1755  0.519
13. NCI-H23  0.49
14. NCI-H322M  0.454
15. NCI-H1915  0.452
16. NCI-H441  0.448
17. NCI-H1437  0.44
18. NCI-H838  0.296
19. NCI-H647  0.293
20. NCI-H1944  0.279
21. LU99A  0.246
22. NCI-H1734  0.242
23. LCLC-97TM1  0.212
24. LK-2  0.189
25. LXF-289  0.179
26. NCI-H358  0.104

Same assay, conditions: first compound 100 µM

In order of rising relative viability:
1. NCI-H358  0.101
2. LK-2  0.183
3. LXF-289  0.206
4. LCLC-97TM1  0.212
5. LU99A  0.253
6. NCI-H1734  0.267
7. NCI-H1944  0.288
8. NCI-H647  0.349
9. NCI-H838  0.349
10. NCI-H1437  0.405
11. NCI-H23  0.433
12. NCI-H322M  0.437
13. NCI-H1915  0.466
14. NCI-H1755  0.474
15. NCI-H1793  0.5
16. NCI-H441  0.511
17. LCLC-103H  0.568
18. NCI-H727  0.606
19. NCI-H1993  0.609
20. NCI-H1355  0.684
21. LOU-NH91  0.703
22. NCI-H1666  0.703
23. NCI-H1651  0.86
24. NCI-H1395  0.867
25. NCI-H1975  0.872
26. NCI-H650  0.973
27. NCI-H596  1.1

Same assay, conditions: first compound 316.23 µM

In order of rising relative viability:
1. NCI-H358  0.0897
2. LK-2  0.174
3. LXF-289  0.174
4. LU99A  0.235
5. LCLC-97TM1  0.241
6. NCI-H1944  0.245
7. NCI-H1734  0.268
8. NCI-H838  0.312
9. NCI-H1437  0.411
10. NCI-H1915  0.416
11. NCI-H322M  0.432
12. NCI-H441  0.438
13. NCI-H23  0.445
14. NCI-H647  0.456
15. NCI-H1793  0.469
16. NCI-H650  0.48
17. NCI-H727  0.501
18. NCI-H1355  0.504
19. NCI-H1755  0.509
20. LCLC-103H  0.556
21. NCI-H1993  0.571
22. LOU-NH91  0.633
23. NCI-H1666  0.711
24. NCI-H1651  0.728
25. NCI-H1975  0.78
26. NCI-H1395  0.83
27. NCI-H596  0.985

Same assay, conditions: first compound 1000 µM

In order of rising relative viability:
1. NCI-H358  0.0865
2. LK-2  0.174
3. LXF-289  0.19
4. LCLC-97TM1  0.231
5. LU99A  0.236
6. NCI-H838  0.258
7. NCI-H1734  0.29
8. NCI-H1944  0.297
9. NCI-H647  0.307
10. NCI-H1437  0.418
11. NCI-H322M  0.419
12. NCI-H1915  0.489
13. NCI-H1755  0.497
14. NCI-H23  0.498
15. NCI-H441  0.587
16. NCI-H1793  0.588
17. LCLC-103H  0.592
18. NCI-H1993  0.596
19. NCI-H727  0.637
20. LOU-NH91  0.65
21. NCI-H1666  0.725
22. NCI-H1395  0.738
23. NCI-H1355  0.757
24. NCI-H650  0.919
25. NCI-H596  0.938
26. NCI-H1651  0.976
27. NCI-H1975  1.08

Compound: CN(C)C(=N)NC(=N)N [Metformin] + NC(=O)Nc1cc(-c2cccc(F)c2)sc1C(=O)N[C@H]1CCCNC1 [AZD7762] (partner 0.2 µM)
Experiment: as above
Details: first compound 10 µM
Method in brief: as §1

In order of falling relative viability:
1. LCLC-103H  0.714
2. LCLC-97TM1  0.205
